Data from patent US20240382476A1, “ANDROGEN RECEPTOR BIOMARKERS FOR CANCER THERAPY” (priority 2021, published 2024).

Tests used:
[1] = system: 22RV1 (AR+) prostate tumors; test: Antitumor activity in mice bearing subcutaneously xenografted 22RV1 prostate tumors; assay type: in vivo, nude mice; conditions: 22RV1 (AR+) s.c. xenograft; 21-days s.c. continuous infusion by osmotic pump
Description: (§1) Animal Models. Five or six-week old male nude mice were purchased from SPF Biotechnology Co., Ltd. (Beijing, China). The prostate tumor cell suspensions (PC-3 or 22RV1) were grafted subcutaneously into the flank of nude mice at a concentration of 3×10^6 cells/mouse. Eight mice whose tumor volumes length×width^2×0.5 (length×width^2×0.5) reached approximately 100 mm^3 were divided into groups. For 21-days subcutaneous (s.c.) continuous infusion, an osmotic pump containing YM155 was implanted in the dorsum of each animal. Body weight and tumor diameter were measured every 3-4 days. The results are shown in FIG. 6A (AR^−) and 6B (AR^+). Anti-tumor activities are expressed as percent inhibition of tumor growth. The percent inhibition of tumor growth on day 21/28 was calculated using following formula: Mean % Inhibition=(mean (Control)−mean (YM155))/mean (Control)*100%. The treatment was started at day 0; vertical bars, SEM.

[2] = system: AR− and AR+ prostate carcinoma cells (PC-3, DU145, 22Rv1, LNCaP, VcaP, LNCaP clone FGC); test: Cell treatment and proliferation assay with high content imaging; assay type: cell-based, human; conditions: 6.25-100 nM for 72 hrs (FIG. 2); 10 nM for 2-72 hrs (FIGS. 3A-3B)
Description: Cell Treatment and proliferation assay. PC-3 and DU145 cells were seeded in 96-well plates (Corning, USA) at 2000 cells/well; LNCaP, VcaP, and LNCaP clone FGC cells were seeded at 5000 cells/well; and 22Rv1 cells were seeded at 3000 cells/well. Cells were treated with 10 nM YM155 or 0.1% DMSO (VWR, USA) for different times (2, 6, 24, 48, and 72 hrs). DU145 cells were also treated with YM155 (10 nM) in further combination with etoposide (0.2 ∪M)+carboplatin (2 ∪M), etoposide (0.2 ∪M)+cisplatin (2 μM), or docetaxel (0.005 μM)+carboplatin (2 μM). At indicated times, cells were fixed with Formaldehyde (final concentration at 4 or 5%; Thermo, USA) for 30-40 minutes at room temperature. The cells were washed three times with PBS (Cellmax, China), then blocked and permeabilized with 3% BSA (Sigma, USA) in 0.5% Triton X-100 (Sigma, USA) for 2 hrs at room temperature. After discarding the supernatant, the cells were incubated with DAPI (Beyotime, China) for 10 minutes at room temperature, then washed again three times with PBS. The cells were kept in PBS and protected from light throughout experiments. The treated cells were scanned for image acquisition with CellInsight™ CX5 High-Content Screening (HSC) Platform (Thermo Fisher), equipped with filters for DAPI (Ex: 386 nm).
PC-3, DU145, 22Rv1, LNCaP, VcaP, and LNCaP clone FGC cells were seeded in 96-well plates at 2000 cells/well. […]

[3] = system: PC-3 (AR−) prostate tumors; test: Antitumor activity in mice bearing subcutaneously xenografted PC-3 prostate tumors; assay type: in vivo, nude mice; conditions: PC-3 (AR−) s.c. xenograft, 21-days s.c. continuous infusion by osmotic pump
Description: as §1

1-(2-Methoxyethyl)-2-methyl-4,9-dioxo-3-(pyrazin-2-ylmethyl)-4,9-dihydro-1H-naphtho [2,3-d] imidazolium bromide [YM155]
activity towards tumor growth relative to control [1]: no significant difference
sensitivity of AR− versus AR+ prostate carcinoma cells to treatment (total cell count) [2]: more sensitive
percent inhibition of tumor growth relative to control ([3]; day 21): 89.62%
percent inhibition of tumor growth relative to control ([3]; day 28): 93.63%
